Laboratory results published in patent publication US20260273072A1, “NOVEL PLK1 DEGRADATION INDUCING COMPOUND” (UPPTHERA, INC., priority 2023, published 2026).

What was measured:
Assay type in all cases: cell-based
[1] = target: T1, PLK1 (Homo sapiens, UniProt P53350); test: Luciferase assay for PLK1 in HeLa LgBit (Plk1-HiBit KI) cell line; details: 300 nM compound, luminescence after 9 hours
T1 construct: endogenous in cells; host or cells: HeLa LgBit (Plk1-HiBit KI): HeLa stably expressing LgBit, with a CRISPR/Cas9 knock-in of HiBit at the endogenous PLK1 locus
Method in brief: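 Compounds (300 nM) were added with Endurazine to thymidine-synchronised cells (2 mM, 24 h block, then release and 18 h culture), and luminescence at 470-480 nm was followed live. Cells: HeLa stably expressing LgBit, HiBit knocked into native PLK1 C-terminus. Value: luminescence ratio versus DMSO control.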

[2] = test system: NCI-H526 cell line; test: Cell viability assay for NCI-H526 cell line (EZ-Cytox); details: Homo sapiens, NCI-H526, 120 h; H526 cells, 5 days, 3000 nM to 0.46 nM
Method in brief: (§1)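 IC50 values are binned (A: <30 nM, B: <50 nM, C: <100 nM, D: <200 nM, E: <400 nM) from EZ-Cytox read-outs. Cells were exposed to compound for 5 days, then shaken 3 min and absorbance taken at […].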

[3] = test system: NCI-H69 cell line; test: Cell viability assay for NCI-H69 cell line (EZ-Cytox); details: Homo sapiens, NCI-H69, 120 h; H69 cells, 5 days, 3000 nM to 0.46 nM
Method in brief: as §1

[4] = test system: MRC-5 cell line; test: Cell viability assay for MRC-5 cell line (EZ-Cytox); details: Homo sapiens, MRC5, 120 h; MRC-5 normal cell line, 5 days, 10000 nM to 1.52 nM; read-out: Activity: IC50 value, cell viability, MRC-5 cell line (Exemplary Compounds)
Protocol: 4. Cell Viability Assay for MRC-5 Cell Line
(1) Culture of MRC-5 Cell Line
The MRC-5 cell line was purchased from KCLB. Passage of cultured cells was maintained within P15.
(2) Treatment of Compounds of the Present Invention
Then, it was cultured in 37° C. CO2 incubator (Thermo Fisher Scientific) for 5 days.
(3) Cytotoxicity Experiment
CO2 incubator for 4 hours.

T1 sequence (P53350 whole entry): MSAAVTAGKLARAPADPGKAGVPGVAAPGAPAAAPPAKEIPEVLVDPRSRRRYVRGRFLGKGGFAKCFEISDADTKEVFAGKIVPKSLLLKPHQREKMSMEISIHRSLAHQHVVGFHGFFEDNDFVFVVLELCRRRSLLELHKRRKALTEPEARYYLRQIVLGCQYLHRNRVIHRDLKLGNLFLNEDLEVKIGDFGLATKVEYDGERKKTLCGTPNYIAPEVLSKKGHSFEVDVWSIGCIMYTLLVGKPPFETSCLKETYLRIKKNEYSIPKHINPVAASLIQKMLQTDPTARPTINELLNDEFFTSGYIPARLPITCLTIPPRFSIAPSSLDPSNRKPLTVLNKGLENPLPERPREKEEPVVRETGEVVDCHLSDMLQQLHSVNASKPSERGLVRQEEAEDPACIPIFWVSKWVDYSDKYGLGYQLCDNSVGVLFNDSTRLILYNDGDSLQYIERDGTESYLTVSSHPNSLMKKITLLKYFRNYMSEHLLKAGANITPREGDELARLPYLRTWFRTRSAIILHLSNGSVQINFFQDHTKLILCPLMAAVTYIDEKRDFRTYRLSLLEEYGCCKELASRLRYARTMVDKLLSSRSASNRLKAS

SMILES	Activity: ratio of the luminescence value of compound treatment group to DMSO treatment group [1]	IC50 [2]	IC50 [3]	IC50 [4]
COc1cc(C(=O)NN2CCC(CCN3CCN(c4cc(F)c(NC5CCC(=O)NC5=O)cc4F)CC3)CC2)ccc1Nc1ncc2c(n1)N(C(C)C)CC(F)(F)C(=O)N2C (stereo not shown) [Compound 58, 4-((7,7-difluoro-9-isopropyl-5-methyl-6-oxo-6,7,8,9-tetrahydro-5H-pyrimido[4,5-b][1,4]diazepin-2-yl)amino)-N-(4-(2-(4-(4-((2,6-dioxopiperidin-3-yl)amino)-2,5-difluorophenyl)piperazin-1-yl)ethyl)piperidin-1-yl)-3-methoxybenzamide]	+++ (+++: <0.3)	< 30 nM	< 30 nM	> 10 µM
COc1cc(C(=O)NN2CCC(CCN3CCN(c4cc(F)c(NC5CCC(=O)NC5=O)cc4F)CC3)CC2)c(F)cc1Nc1ncc2c(n1)N(C1CCCC1)CC(F)(F)C(=O)N2C (stereo not shown) [Compound 59, 4-((9-cyclopentyl-7,7-difluoro-5-methyl-6-oxo-6,7,8,9-tetrahydro-5H-pyrimido[4,5-b][1,4]diazepin-2-yl)amino)-N-(4-(2-(4-(4-((2,6-dioxopiperidin-3-yl)amino)-2,5-difluorophenyl)piperazin-1-yl)ethyl)piperidin-1-yl)-2-fluoro-5-methoxybenzamide]	++ (++: <0.5)	< 30 nM	< 50 nM	> 10 µM
COc1cc(C(=O)NN2CCC(CCN3CCN(c4cc(F)c(NC5CCC(=O)NC5=O)cc4F)CC3)CC2)c(F)cc1Nc1ncc2c(n1)N(C(C)C)CC(F)(F)C(=O)N2C (stereo not shown) [Compound 60, 4-((7,7-difluoro-9-isopropyl-5-methyl-6-oxo-6,7,8,9-tetrahydro-5H-pyrimido[4,5-b][1,4]diazepin-2-yl)amino)-N-(4-(2-(4-(4-((2,6-dioxopiperidin-3-yl)amino)-2,5-difluorophenyl)piperazin-1-yl)ethyl)piperidin-1-yl)-2-fluoro-5-methoxybenzamide]	++ (++: <0.5)	< 50 nM	< 50 nM	> 10 µM
COc1cc(C(=O)NC2CCN(CCC3CCN(c4cc(F)c(NC5CCC(=O)NC5=O)cc4F)CC3)CC2)ccc1Nc1ncc2c(n1)N(C1CCCC1)CC(F)(F)C(=O)N2C (stereo not shown) [Compound 63, 4-((9-cyclopentyl-7,7-difluoro-5-methyl-6-oxo-6,7,8,9-tetrahydro-5H-pyrimido[4,5-b][1,4]diazepin-2-yl)amino)-N-(1-(2-(1-(4-((2,6-dioxopiperidin-3-yl)amino)-2,5-difluorophenyl)piperidin-4-yl)ethyl)piperidin-4-yl)-3-methoxybenzamide]	+++ (+++: <0.3)	< 30 nM	< 50 nM	> 10 µM
CCN1CC(F)(F)C(=O)N(C)c2cnc(Nc3ccc(C(=O)NC4CCN(CCC5CCN(c6cc(F)c(NC7CCC(=O)NC7=O)cc6F)CC5)CC4)cc3OC)nc21 (stereo not shown) [Compound 64, N(1-(2-(1-(4-((2,6-dioxopiperidin-3-yl)amino)-2,5-difluorophenyl)piperidin-4-yl)ethyl)piperidin-4-yl)-4-((9-ethyl-7,7-difluoro-5-methyl-6-oxo-6,7,8,9-tetrahydro-5H-pyrimido[4,5-b][1,4]diazepin-2-yl)amino)-3-methoxybenzamide]	++ (++: <0.5)	< 30 nM	< 30 nM	> 10 µM
COc1cc(-c2nnc(CN3CCC(CCN4CCN(c5cc(F)c(NC6CCC(=O)NC6=O)cc5F)CC4)CC3)o2)ccc1Nc1ncc2c(n1)N(C1CCCC1)CC(F)(F)C(=O)N2C (stereo not shown) [Compound 65, 3-((4-(4-(2-(1-((5-(4-((9-cyclopentyl-7,7-difluoro-5-methyl-6-oxo-6,7,8,9-tetrahydro-5H-pyrimido[4,5-b][1,4]diazepin-2-yl)amino)-3-methoxyphenyl)-1,3,4-oxadiazol-2-yl)methyl)piperidin-4-yl)ethyl)piperazin-1-yl)-2,5-difluorophenyl)amino)piperidine-2,6-dione]	++ (++: <0.5)	< 100 nM	< 200 nM	> 10 µM
COc1cc(-c2nnc(N3CCC(CCN4CCN(c5cc(F)c(NC6CCC(=O)NC6=O)cc5F)CC4)CC3)o2)ccc1Nc1ncc2c(n1)N(C1CCCC1)CC(F)(F)C(=O)N2C (stereo not shown) [Compound 66, 3-((4-(4-(2-(1-(5-(4-((9-cyclopentyl-7,7-difluoro-5-methyl-6-oxo-6,7,8,9-tetrahydro-5H-pyrimido[4,5-b][1,4]diazepin-2-yl)amino)-3-methoxyphenyl)-1,3,4-oxadiazol-2-yl)piperidin-4-yl)ethyl)piperazin-1-yl)-2,5-difluorophenyl)amino)piperidine-2,6-dione]	++ (++: <0.5)	< 200 nM	< 200 nM	> 10 µM
COc1cc(C(=O)NC2CCN(CCN3CCN(c4cc(F)c(NC5CCC(=O)NC5=O)cc4F)CC3)CC2)ccc1Nc1ncc2c(n1)N(C1CCCC1)CC(F)(F)C(=O)N2C (stereo not shown) [Compound 67, 4-((9-cyclopentyl-7,7-difluoro-5-methyl-6-oxo-6,7,8,9-tetrahydro-5H-pyrimido[4,5-b][1,4]diazepin-2-yl)amino)-N-(1-(2-(4-(4-((2,6-dioxopiperidin-3-yl)amino)-2,5-difluorophenyl)piperazin-1-yl)ethyl)piperidin-4-yl)-3-methoxybenzamide]	++ (++: <0.5)	< 30 nM	< 30 nM	> 10 µM
COc1cc(C(=O)NC2CCN(CCN3CCN(c4cc(F)c(NC5CCC(=O)NC5=O)cc4F)CC3)CC2)ncc1Nc1ncc2c(n1)N(C1CCCC1)CC(F)(F)C(=O)N2C (stereo not shown) [Compound 68, 5-((9-cyclopentyl-7,7-difluoro-5-methyl-6-oxo-6,7,8,9-tetrahydro-5H-pyrimido[4,5-b][1,4]diazepin-2-yl)amino)-N-(1-(2-(4-(4-((2,6-dioxopiperidin-3-yl)amino)-2,5-difluorophenyl)piperazin-1-yl)ethyl)piperidin-4-yl)-4-methoxypicolinamide]	++ (++: <0.5)	< 50 nM	< 100 nM	> 10 µM
COc1cc(C(=O)NC2CC3(CCN(CC4CCN(c5cc(F)c(NC6CCC(=O)NC6=O)cc5F)CC4)CC3)C2)c(F)cc1Nc1ncc2c(n1)N(C(C)C)CC(F)(F)C(=O)N2C (stereo not shown) [Compound 69, 4-((7,7-difluoro-9-isopropyl-5-methyl-6-oxo-6,7,8,9-tetrahydro-5H-pyrimido[4,5-b][1,4]diazepin-2-yl)amino)-N-(7-((1-(4-((2,6-dioxopiperidin-3-yl)amino)-2,5-difluorophenyl)piperidin-4-yl)methyl)-7-azaspiro[3.5]nonan-2-yl)-2-fluoro-5-methoxybenzamide]	++ (++: <0.5)	< 30 nM	< 50 nM	> 10 µM
COc1cc(C(=O)NN2CCC(CCN3CCN(c4ccc(NC5CCC(=O)NC5=O)c(F)c4F)CC3)CC2)ccc1Nc1ncc2c(n1)N(C1CCCC1)CC(F)(F)C(=O)N2C (stereo not shown) [Compound 71, 4-((9-cyclopentyl-7,7-difluoro-5-methyl-6-oxo-6,7,8,9-tetrahydro-5H-pyrimido[4,5-b][1,4]diazepin-2-yl)amino)-N-(4-(2-(4-(4-((2,6-dioxopiperidin-3-yl)amino)-2,3-difluorophenyl)piperazin-1-yl)ethyl)piperidin-1-yl)-3-methoxybenzamide]	+++ (+++: <0.3)	< 30 nM	< 30 nM	> 10 µM
COc1cc(C(=O)NC2CCN(CCN3CCN(c4cc(Cl)c(NC5CCC(=O)NC5=O)cc4F)CC3)CC2)c(F)cc1Nc1ncc2c(n1)N(C(C)C)CC(F)(F)C(=O)N2C (stereo not shown) [Compound 72, N(1-(2-(4-(5-chloro-4-((2,6-dioxopiperidin-3-yl)amino)-2-fluorophenyl)piperazin-1-yl)ethyl)piperidin-4-yl)-4-((7,7-difluoro-9-isopropyl-5-methyl-6-oxo-6,7,8,9-tetrahydro-5H-pyrimido[4,5-b][1,4]diazepin-2-yl)amino)-2-fluoro-5-methoxybenzamide]	++ (++: <0.5)	< 50 nM	< 100 nM	> 10 µM
COc1cc(C(=O)NC2CCN(CCN3CCN(c4cc(Cl)c(NC5CCC(=O)NC5=O)cc4F)CC3)CC2)c(F)cc1Nc1ncc2c(n1)N(C1CCCC1)CC(F)(F)C(=O)N2C (stereo not shown) [Compound 73, N(1-(2-(4-(5-chloro-4-((2,6-dioxopiperidin-3-yl)amino)-2-fluorophenyl)piperazin-1-yl)ethyl)piperidin-4-yl)-4-((9-cyclopentyl-7,7-difluoro-5-methyl-6-oxo-6,7,8,9-tetrahydro-5H-pyrimido[4,5-b][1,4]diazepin-2-yl)amino)-2-fluoro-5-methoxybenzamide]	++ (++: <0.5)	< 50 nM	< 100 nM	> 10 µM
